# Assay results as given in patent US20090252704A1, “THERAPIES FOR COGNITION AND LEARNING ENHANCEMENT” (priority 2008, published 2009).
# Columns and labels:
# scopolamine treated mice = assay: step through passive avoidance (STPA) in scopolamine treated mice; assay type: in vivo, Male C57BL/6 mice
# Excerpt: Male C57BL/6 mice weighing 20-25 g (6-8 weeks of age) were maintained in a controlled environment (housed at 5 per cage; at 22-25 C.°; 12/12 light/dark cycle) and allowed to acclimate 2 weeks before initiation of the STPA task. The STPA apparatus consists of a box with two compartments light and dark; each of 20×9.5×16.5 cm^3 (Ugo Basile Rat Passive Avoidance Apparatus, customized for mice with chamber inserts). Mice were transported to the testing facility in covered cages and whilst in training or testing phases were housed at 1 or 2 per cage.
# STPA Habituation phase: Mice are placed in the light compartment and latency to enter the dark compartment is recorded. The criteria of success is entrance to the dark compartment within 30 sec twice in three trails or three times in five trials; showing the normal aversion of mice to a highly lit space.
# STPA Training phase: In acute drug testing, 2 hrs after habituation is complete; 30 min (t=−30) and 20 min (t=−20) prior to training, scopolamine (or saline) and test drug (or vehicle), respectively, are administered. In the drinking water protocol, at t=−30 prior to training, scopolamine (or saline) is administered. Mice are placed into the light compartment at time zero. Upon entry into the dark compartment, an automatic door closes and 2.0 sec shock (0.5 mA) is delivered through the floor grating. […] The number of trials to reach criterion is recorded for assessment of secondary biomarkers, such as analgesia.
# STPA Testing phase: At 24 h and 48 h post training, animals are tested for memory retention without any drug administration. The animals are again placed in the light compartment. Latency to enter the dark side is recorded as a measure of memory consolidation, retention and retrieval.
# Scopolamine (1 mg/kg; 1 mg/4 ml) is administered ip. Test compound (1 mg/kg, 1 mg/Kg) administered ip.
# Dosing—Behavioral Studies: Drugs and vehicle were administered either i.p. for acute studies (1 mg/kg, or as indicated in the figures, in saline), otherwise in drinking water (20 mg/kg/day).
# Drinking water dosing: Rodents drink continuously during the active dark cycle and intermittently during the resting light cycle.
# [1] = test system: animal models of chronic learning and cognition impairment; assay: animal models of chronic learning and cognition impairment; assay type: in vivo; details: chronic use
structure (smiles),measurement,setting,value
"Cc1ncsc1CCO[N+](=O)[O-].Cl [GT-1061, 4-methyl-5-(2-nitroxyethyl)thiazole HCl]","reversal of cognition deficits, comparison (FIG. 4)","scopolamine treated mice; STPA, scopolamine treated mice",reversal of cognition deficits
same,"cognition deficit reversal (FIG. 1, FIG. 2 and FIG. 3)","scopolamine treated mice; in drinking water (20 mg/kg/day), STPA, scopolamine 1 mg/kg ip",cognition deficit reversal
"O=[N+]([O-])O[C@H]1CO[C@H]2[C@@H]1OC[C@H]2O[N+](=O)[O-] [ISDN, isosorbide dinitrate]",effect on learning and cognition,[1],enhance learning and cognition
same,"reversal of cognition deficits, comparison (FIG. 4)","scopolamine treated mice; STPA, scopolamine treated mice",reversal of cognition deficits
Cc1ncsc1CCCl [clomethiazole],"reversal of cognition deficits, comparison (FIG. 4)","scopolamine treated mice; mouse, in vivo",reversal of cognition deficits
